# Assay results from US10928398B2, “Method for double staining colocalized nuclear-markers in histological lymphoid or bone marrow tissue sample” (CORNELL UNIVERSITY, priority 2008, dated 2021).
# How the values were obtained:
# relapsed MM = assay: Time to progression of relapsed MM patients receiving high-dose Dex in prospective clinical trials; type: in vivo, human
# From the text: High-dose pulsed dexamethasone (Dex) is one of the preferred treatments for relapsed MM patients and is currently the accepted gold standard against which investigational drugs are being tested. The predictors of outcome for relapsed patients while on Dexamthasone (Dex) treatment have not been well established. These predictors were prospectively evaluated using the Ki-67/MUM1 markers in patients with relapsed MM receiving Dex in consecutive, prospective clinical trials. Time to progression is defined as date of Dex initiation to date of progressive disease (PD). Sixteen patients with relapsed MM were evaluated.
# [1] = system: Ki67 expression in lymphoma cells; assay: Double IHC PAX5/Ki67 with image analysis of lymph node biopsies of a B cell lymphoma patient in a phase I trial; type: in vivo, human; settings: day 21 of therapy, 97.52% prior to treatment
# From the text: (§1) The double stained IHC slides were accessioned into the image analysis system and then loaded onto the machine in batches of 60. A robotic arm picked up each slide, one at a time, and loaded it onto the microscope. Via a motorized stage, the microscope moves and scans the slide, looking for tissue, the location of which varies slightly from slide to slide. Once it has found the tissue, the device scans the tissue and the camera records low resolution images. Using the scanned low resolution images, the inventor selected ten good areas for subsequent high resolution scanning and analysis. Numerous data points were then calculated for each of the ten areas per slide, and those data were averaged.
# (§2) Since no counterstain was used in these slides, all identifiable cells are positive for at least one marker (e.g., in FIG. 3A, cells that express neither MUM1 nor pSRb are not visible). The characteristics used for the analysis (“classifiers”) were determined by a process whereby the inventor trained the software what was considered to be cells of each color. The software analyzed the high resolution images by first applying color parameters to decide if a nucleus was blue, red, or purple. It finds pixels within the appropriate range of color parameters as defined by hue, saturation, and intensity; objects too light or too dark, as determined by the classifiers, were not included in the analysis. […]
# [2] = system: MM cells (MUM1 positive) expressing Ki67 or pSRb; assay: Double IHC MUM1/Ki67 or MUM1/pSRb of bone marrow biopsies of multiple myeloma patients in a phase I/II trial; type: in vivo, human; settings: for Effect on cycling of MM cells (Ki67, pSRb): MM patient bone marrow, after treatment for 8 days
# Protocol: In hematopoietic cancer biopsies, the non-cancer hematopoietic and immune cells must be excluded. In this example, multiple myeloma (MM) cells were identified in biopsy samples with an anti-MUM1 antibody and a detection system yielding a red signal. Specificity of MUM1 for myeloma cells in MM biopsies is estimated at ˜99%, thus excluding non-MM cells from the analysis. Double IHC was performed to detect cell cycle molecules in situ in MM cells. Each slide was stained for MUM1 (above) using Bond™ Polymer AP Red Detection System (DS9305, Leica, Bannockburn, Ill.) to afford a red pigment, and for the cell cycle molecule with Blue Alkaline Phosphate Substrate Kit (Vector Laboratories, Burlingame, Calif.) to afford a blue pigment. The cell cycle molecules, including Ki67 and pSRb, are nuclear. With these particular chromogen systems, double staining yielded MM cells with either a red nuclear signal if the cell was not proliferating or a purple nuclear signal if the MM cells were proliferating (positive for the cell cycle molecule in question). Cells with a blue nuclear signal ([…]) were non MM cells (FIG. 3A) that were proliferating.
# To compute the percentage of MM cells expressing various cell cycle molecules, purple (MUM1+/cell cycle molecule+) cells were manually counted as a percentage of purple cells plus red (MUM1+/cell cycle molecule negative) cells. This manual method of analysis can be performed with any standard microscope.
# To increase the accuracy, the same slides were first loaded in batches of 60 into an image analysis system, which performs photographic digital scans of each slide. Using an automatic image analyzer, the number of cells with a purple nucleus and those with a red nucleus in a given area was determined. The counts were performed in triplicate. The percentage of MM cells in the proliferative stage represented by the cell cycle molecule targeted is the number of purple cells divided by the number of purple and red cells. […] The intensity of positive staining was scored in comparison to expression in B cells from serial sections of a single tonsil control slide, run in parallel with the marrow slides. […]
# IHC was performed on 4 micron sections of paraffin-embedded bone marrow tissues using a Leica Microsystems (Bannockburn, Ill.) Bond Max automated immunostainer. MUM1 MM cells were detected using an anti-MUM1 mouse monoclonal antibody (Mab) (Dako, Carpinteria, Calif.) and the Bond™ Polymer AP Red Detection System (Leica). Simultaneous expression of other proteins was detected with monoclonal antibodies to Ki-67, cyclin D1, cyclin D2, cyclin D3, MCM2, MCM7, skp2, p16, p18, p21, p27, Rb, c-myc, Cdk4 and Cdk6 and polyclonal rabbit antisera to either pSer^807/811, pSer^608 or pSer^780 of human Rb. […]
# [3] = system: Rb phosphorylation by Cdk4/6 at serine 807/811 (pS807/811Rb) in lymphoma cells; assay: Double IHC PAX5/pS807/811Rb with image analysis of lymph node biopsies of a B cell lymphoma patient in a phase I trial; type: in vivo, human; settings: day 21 of therapy, 84.08% before treatment
# From the text: as §1, §2
# Myeloma = settings: cited from earlier work
smiles,measurement,setting,value
"C[C@@H]1C[C@H]2[C@@H]3CCC4=CC(=O)C=C[C@]4(C)[C@@]3(F)[C@@H](O)C[C@]2(C)[C@@]1(O)C(=O)CO [Dex, dexamethasone]",Patients showing progressive disease,"relapsed MM; 16 patients with relapsed MM, n=9",56%
same,Median time to progressive disease,"relapsed MM; patients with progressive disease, from Dex initiation",87 days
CC(=O)c1c(C)c2cnc(Nc3ccc(N4CCNCC4)cn3)nc2n(C2CCCC2)c1=O [PD-332991],Ki67 expression in % of lymphoma cells,[1],23.13%
same,MM patients showing similar efficacy,[2]; 11/11 MM patients,100%
same,"Effect on cycling of MM cells (Ki67, pSRb)",[2],great efficacy
same,"Effect on cycling of MM cells (Ki67, pSRb)",[2]; listed as CDk4/6 inhibitor,no longer cycling
same,Cycling of MM cells after cessation of drug,[2]; biopsies 6 days after cessation of drug administration,returned to cycling in percentages comparable to what was observed prior to treatment
same,pS807/811Rb found in % of lymphoma cells,[3],2.14%
"CC(C)C[C@H](NC(=O)[C@H](Cc1ccccc1)NC(=O)c1cnccn1)B(O)O [PS-341(bortezomib), bortezomib]","Responsiveness, % of patients",Myeloma,30%
